The target in series [1] is T1, C-X-C chemokine receptor type 2 (Homo sapiens, UniProt P25025).
T1 sequence (P25025 whole entry): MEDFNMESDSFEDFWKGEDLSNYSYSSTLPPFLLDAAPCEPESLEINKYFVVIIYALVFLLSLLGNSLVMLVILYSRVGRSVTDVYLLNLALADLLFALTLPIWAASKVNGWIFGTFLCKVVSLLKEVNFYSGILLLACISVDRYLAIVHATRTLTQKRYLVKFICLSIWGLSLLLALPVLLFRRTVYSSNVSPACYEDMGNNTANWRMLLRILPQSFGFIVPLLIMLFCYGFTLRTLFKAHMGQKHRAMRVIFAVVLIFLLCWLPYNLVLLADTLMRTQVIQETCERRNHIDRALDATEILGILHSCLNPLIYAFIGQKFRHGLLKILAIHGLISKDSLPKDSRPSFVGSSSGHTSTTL
In words: Displacement of [125I]IL8 from CXCR2 expressed in CHO cells. It counts as cell-based. A general note: Loss of bound radioactivity is the signal in a displacement assay; it reports binding, not function.

The target in series [2] is T2, C-X-C chemokine receptor type 1 (Homo sapiens, UniProt P25024).
T2 sequence (P25024 whole entry): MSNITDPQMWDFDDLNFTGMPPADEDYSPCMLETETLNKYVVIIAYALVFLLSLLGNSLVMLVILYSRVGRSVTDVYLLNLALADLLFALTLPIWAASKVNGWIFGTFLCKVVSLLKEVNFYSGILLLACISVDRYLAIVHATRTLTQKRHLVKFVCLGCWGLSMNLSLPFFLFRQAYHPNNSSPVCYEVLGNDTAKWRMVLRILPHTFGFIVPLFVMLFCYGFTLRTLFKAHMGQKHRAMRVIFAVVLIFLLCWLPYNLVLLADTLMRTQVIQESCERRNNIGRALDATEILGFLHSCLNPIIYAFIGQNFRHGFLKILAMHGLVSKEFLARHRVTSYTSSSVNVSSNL
Briefly: Displacement of [125I]IL8 from CXCR1 expressed in CHO cells. It counts as cell-based.

Series [3] deals with Interleukin-8 receptors, CXCR1/CXCR2 (Homo sapiens) (UniProt P25025+P25024). Briefly: Selectivity for CXCR2 over CXCR1. It counts as protein assay.
Series [4] is described as follows: Dissociation constant, pKa of the compound. It counts as physicochemical.

The values that follow come from ChEMBL document CHEMBL1139694, “N,N'-Diarylcyanoguanidines as antagonists of the CXCR2 and CXCR1 chemokine receptors” (Bioorg Med Chem Lett, 2006).

Some results are limits rather than exact numbers.

Consider `CCc1ccccc1NC(=Nc1ccc(Cl)c(S(=O)(=O)N(C)C)c1O)NC#N`, for which the 50% inhibitory concentration (IC50) (in general, the concentration at which inhibition is half-maximal) is 0.015 µM (antagonist) in series [1] and 0.512 µM (antagonist) in series [2].

With `CCC(CC)(NS(=O)(=O)c1c(Cl)ccc(N=C(NC#N)Nc2ccccc2C)c1O)N1C[C@@H](C)O[C@@H](C)C1`, the figures for the IC50 in series [1] and in series [2] were 0.017 µM (antagonist) and 1.08 µM, respectively.

Consider `CN(C)S(=O)(=O)c1c(Cl)ccc(N/C(=N/C#N)Nc2cccc(Cl)c2F)c1O`, for which the Ratio IC50 in series [3] was > 200.

`CN(C)S(=O)(=O)c1c(F)ccc(N/C(=N/C#N)Nc2ccccc2Br)c1O`: the values for the half-inhibitory concentration (IC50) in series [1] and in series [2] were 0.004 µM (antagonist) and 0.192 µM (antagonist), respectively.

As for `CCC(CC)(NS(=O)(=O)c1cccc(N/C(=N/C#N)Nc2ccccc2Br)c1O)N1CCOCC1`, the half-inhibitory concentration (IC50) in series [1] was 0.012 µM (antagonist); in series [2], 0.582 µM (antagonist). Further, in series [4], the pKa (usually the negative logarithm of the acid dissociation constant) amounted to 6.48.

Consider `CCC(CC)(NS(=O)(=O)c1c(Cl)ccc(N/C(=N/C#N)Nc2ccccc2Br)c1O)N1CCC(N)CC1`, for which the values for the IC50 in series [1] and in series [2] were 0.022 µM (antagonist) and 0.188 µM (antagonist), respectively.

As to `Cc1ccccc1NC(=Nc1ccc(Cl)c(S(=O)(=O)N(C)C)c1O)NC#N`, the IC50 is 0.017 µM (antagonist) in series [1] and 0.378 µM (antagonist) in series [2].

On to `CN(C)S(=O)(=O)c1c(Cl)ccc(N/C(=N/C#N)Nc2ccccc2-c2ccccc2)c1O`, for which the values for the half-maximal inhibitory concentration (IC50) in series [1] and in series [2] were 0.013 µM (antagonist) and 0.752 µM (antagonist), respectively.

Take `CCC(CC)(NS(=O)(=O)c1c(Cl)ccc(N/C(=N/C#N)Nc2ccccc2Br)c1O)N1C[C@@H](C)O[C@@H](C)C1`: the IC50 in series [1] is 0.009 µM (antagonist); in series [2] it was 0.215 µM (antagonist). The pKa in series [4] amounted to 6.41.

Consider `CN(C)S(=O)(=O)c1c(Cl)ccc(N/C(=N/C#N)Nc2ccccc2Br)c1O`, for which the values for the IC50 in series [1] and in series [2] were 0.005 µM (antagonist) and 0.055 µM (antagonist), respectively.

With `CCC(CC)(NS(=O)(=O)c1c(C)ccc(N=C(NC#N)Nc2ccccc2Br)c1O)N1CCOCC1`, the half-inhibitory concentration (IC50) is 0.006 µM (antagonist) in series [1] and 0.104 µM (antagonist) in series [2].

Consider `Cc1ccc(N=C(NC#N)Nc2ccccc2Br)c(O)c1S(=O)(=O)N(C)C`, for which the concentration for half-maximal inhibition (IC50) was 0.007 µM (antagonist) in series [1] and 0.187 µM (antagonist) in series [2].

Consider `CN(C)S(=O)(=O)c1c(Cl)ccc(N=C(NC#N)Nc2ccccc2C(F)(F)F)c1O`, for which the IC50 in series [1] was 0.012 µM (antagonist); in series [2], 0.411 µM (antagonist).

`CC(C)c1ccccc1N/C(=N\C#N)Nc1ccc(Cl)c(S(=O)(=O)N(C)C)c1O`: the concentration for half-maximal inhibition (IC50) is 0.112 µM (antagonist) in series [1] and 7.29 µM in series [2].

As to `CN(C)S(=O)(=O)c1c(Cl)ccc(N/C(=N/C#N)Nc2ccccc2OCc2ccccc2)c1O`, the IC50 in series [1] was 0.009 µM (antagonist); in series [2] it was 0.293 µM (antagonist).

On to `CN(C)S(=O)(=O)c1c(C(F)(F)F)ccc(N/C(=N/C#N)Nc2ccccc2Br)c1O`, for which the half-inhibitory concentration (IC50) in series [1] is 0.007 µM (antagonist); in series [2] it was 0.1 µM (antagonist).

With `CN(C)S(=O)(=O)c1c(Cl)ccc(N=C(NC#N)Nc2cccc(Cl)c2F)c1O`, the results for the half-inhibitory concentration (IC50) in series [1] and in series [2] were 0.029 µM (antagonist) and 6.2 µM, respectively.

As to `CN(C)S(=O)(=O)c1c(Cl)ccc(N=C(NC#N)Nc2ccccc2F)c1O`, the IC50 was 0.009 µM (antagonist) in series [1] and 1.55 µM in series [2].

Regarding `CCC(CC)(NS(=O)(=O)c1c(Cl)ccc(N/C(=N/C#N)Nc2ccccc2Br)c1O)N1CCC[C@@H]1C(=O)O`, the concentration for half-maximal inhibition (IC50) in series [1] is 0.016 µM (antagonist); in series [2], 0.022 µM (antagonist).
